Reference: the supplement of paper PMC10307832

Tests used:
Experiment in all cases: relative viability (nuclei count vs DMSO), 5 days (fraction); higher = more cells survive
[1] = compound: C(C(=O)C(=O)O)Br [Bromopyruvate] + CC(=O)Nc1cccc(-n2c(=O)n(C3CC3)c(=O)c3c(Nc4ccc(I)cc4F)n(C)c(=O)c(C)c32)c1 [Trametinib] (partner 0.02 µM)
Procedure, shortened: (§1)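 Nuclei were stained with Hoechst during a one-step fixation (final 0.05% Triton X-100, 1% formaldehyde, 1 ug/ml Hoechst) carried out 5 days after dosing, then counted on 4× images. The cells, lung cancer lines in 1536-well plates, had been dosed by pin tool the day after seeding with one drug alone or a fixed anchor-drug dose plus five library-drug doses (not always all listed) in √10 steps. Relative viability is the nuclei count in treated wells divided by that in vehicle wells, and each value is the median of duplicate plates.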

[2] = compound: C(C(=O)C(=O)O)Br [Bromopyruvate] + CC(=O)c1c(C)c2cnc(Nc3ccc(N4CCNCC4)cn3)nc2n(C2CCCC2)c1=O [Palbociclib] (partner 0.5 µM)
Procedure, shortened: as §1

[3] = compound: C(C(=O)C(=O)O)Br [Bromopyruvate] + CC1(C)CCC(c2ccc(Cl)cc2)=C(CN2CCN(c3ccc(C(=O)NS(=O)(=O)c4ccc(N[C@H](CCN5CCOCC5)CSc5ccccc5)c(S(=O)(=O)C(F)(F)F)c4)cc3)CC2)C1 [Navitoclax] (partner 0.5 µM)
Procedure, shortened: as §1

[4] = compound: C(C(=O)C(=O)O)Br [Bromopyruvate] + C[C@]1(O)C[C@@H](c2nc(-c3ccc4ccc(-c5ccccc5)nc4c3)c3c(N)nccn32)C1 [Linsitinib] (partner 1 µM)
Procedure, shortened: as §1

| Cell Line | relative viability ([1]; first compound 1 µM) | relative viability ([1]; first compound 3.162 µM) | relative viability ([1]; first compound 10 µM) | relative viability ([1]; first compound 31.62 µM) | relative viability ([1]; first compound 100 µM) | relative viability ([2]; first compound 1 µM) | relative viability ([2]; first compound 3.162 µM) | relative viability ([2]; first compound 10 µM) | relative viability ([2]; first compound 31.62 µM) | relative viability ([2]; first compound 100 µM) | relative viability ([3]; first compound 1 µM) | relative viability ([3]; first compound 3.162 µM) | relative viability ([3]; first compound 10 µM) | relative viability ([3]; first compound 31.62 µM) | relative viability ([3]; first compound 100 µM) | relative viability ([4]; first compound 1 µM) | relative viability ([4]; first compound 3.162 µM) | relative viability ([4]; first compound 10 µM) | relative viability ([4]; first compound 31.62 µM) | relative viability ([4]; first compound 100 µM) |
| --- | --- | --- | --- | --- | --- | --- | --- | --- | --- | --- | --- | --- | --- | --- | --- | --- | --- | --- | --- | --- |
| 201T | 0.709 | 0.719 | 0.709 | 0.725 | 0.755 | 0.341 | 0.348 | 0.344 | 0.35 | 0.382 | 1.28 | 1.15 | 1.18 | 1.2 | 1.19 | 1.05 | 1.07 | 1.06 | 1.02 | 1.11 |
| A549 | – | – | – | – | – | – | – | – | – | – | 1.23 | 1.22 | 1.36 | 1.22 | 1.33 | – | 0.607 | 0.754 | 0.687 | 0.696 |
| A-427 | 0.73 | 0.766 | 0.838 | 0.767 | 0.771 | 0.51 | 0.552 | 0.551 | 0.536 | 0.497 | 0.967 | 0.876 | 0.895 | 1.02 | 1.04 | 1.05 | 1.05 | 1.03 | 1.15 | 1.14 |
| ABC-1 | – | – | – | – | – | 0.662 | – | – | – | 0.792 | – | – | – | – | – | 0.767 | 1.05 | – | 0.693 | 0.753 |
| BEN | 1.03 | 0.983 | 1.18 | 0.97 | 1.2 | 0.457 | 0.449 | 0.505 | 0.497 | 0.486 | 0.0705 | 0.0702 | 0.072 | 0.0664 | 0.0566 | 0.97 | 0.869 | 0.932 | 0.929 | 0.936 |
| CAL-12T | 0.302 | 0.285 | 0.393 | 0.347 | 0.307 | 0.429 | 0.444 | 0.552 | 0.395 | 0.285 | 1.06 | 1.23 | 1.34 | 1.34 | 1.08 | 0.789 | 0.732 | 0.899 | 0.828 | 0.845 |
| COR-L23 | 0.585 | 0.652 | 0.651 | 0.582 | 0.544 | 0.239 | 0.283 | 0.232 | 0.255 | 0.178 | 0.77 | 1.05 | 1.12 | 0.851 | 0.401 | 0.906 | 0.843 | 1 | 0.889 | 0.451 |
| COR-L 105 | 0.432 | 0.449 | 0.417 | 0.422 | 0.329 | 0.404 | 0.396 | 0.415 | 0.374 | 0.429 | 0.757 | 0.962 | 0.689 | 0.688 | 0.549 | 0.943 | 0.898 | 0.838 | 0.736 | 0.702 |
| Calu-6 | – | – | – | – | – | – | – | – | – | – | 0.939 | 0.922 | 0.779 | 0.792 | 0.74 | 0.889 | 1.04 | 1.09 | 0.926 | 0.958 |
| ChaGo-K-1 | 0.887 | 0.911 | 0.963 | 0.855 | 0.903 | 0.93 | 0.947 | 0.979 | 0.87 | 0.876 | 1.17 | 0.99 | 0.963 | 0.96 | 0.879 | – | – | – | – | – |
| EBC-1 | – | – | – | – | – | – | – | – | – | – | 0.448 | 0.528 | 0.433 | 0.453 | 0.358 | 0.78 | 0.963 | 0.994 | 0.905 | 0.93 |
| EKVX | 0.368 | 0.381 | 0.334 | 0.448 | 0.378 | 0.217 | 0.387 | 0.459 | 0.494 | 0.44 | 0.887 | 0.995 | 1.06 | 0.95 | 1.07 | 0.905 | 1.02 | 1.11 | 0.965 | 1.13 |
| EMC-BAC-2 | 0.753 | 1.01 | 0.985 | – | 0.959 | 0.434 | 0.546 | 0.554 | 0.506 | 0.533 | 1.02 | 1.17 | 1.31 | 1.15 | 1.25 | 0.716 | 0.825 | 0.9 | 0.838 | 0.887 |
| EPLC-272H | 0.266 | 0.278 | 0.341 | 0.302 | 0.289 | 0.321 | 0.372 | 0.386 | 0.31 | 0.362 | 1.15 | 1.22 | 1.01 | 1.2 | 1.34 | 1.06 | 1.14 | 1.13 | 1.19 | 1.3 |
| H3255 | 0.55 | 0.547 | 0.647 | 0.574 | 0.718 | 0.314 | 0.31 | 0.297 | 0.308 | 0.309 | 0.575 | 0.603 | 0.512 | 0.504 | 0.512 | 0.945 | 1.02 | 0.997 | 0.967 | 1.1 |
| HARA | 0.709 | 0.814 | – | 0.633 | 1 | 0.254 | 0.283 | 0.296 | 0.259 | 0.261 | 1.12 | 1.16 | 1.13 | 1.17 | 1.14 | 0.978 | 1.01 | 1.01 | 0.932 | 1.02 |
| HCC-15 | 0.349 | 0.385 | 0.386 | 0.369 | 0.393 | 0.654 | 0.677 | 0.846 | 0.771 | 0.741 | 0.697 | 0.723 | 0.759 | 0.765 | 0.657 | 0.84 | 0.867 | 0.924 | 0.824 | 0.899 |
| HCC-44 | 1.08 | 1.02 | 1.04 | 1.11 | 1 | 0.985 | 0.912 | 0.944 | 1.01 | 0.991 | 0.907 | 0.967 | 1.08 | 0.96 | 1.04 | 0.612 | 0.662 | 0.729 | 0.753 | 0.713 |
| HCC-78 | 0.746 | 0.681 | 0.955 | 0.71 | 0.72 | 0.446 | 0.471 | 0.455 | 0.514 | 0.407 | 0.386 | 0.759 | 0.977 | 0.893 | 0.886 | 0.457 | 0.603 | 0.575 | 0.629 | 0.547 |
